# Laboratory results published in US20170073679A1, “Compositions and Methods for Selective Delivery of Oligonucleotide Molecules to Cell Types” (nLife Therapeutics, S.L., priority 2012, published 2017).
# d = 2'-deoxy (DNA); m = 2'-O-methyl
# Columns and labels:
# [1] = molecular target: human recombinant GHS-R1a (Homo sapiens, UniProt Q92847); settings: cited from earlier work
# rat pituitary cells = settings: read-out: EC50, stimulates GH release; cited from earlier work
# [2] = system: obese animals (high fat diet); assay: Physiological effect of tabimorelin conjugated antisense oligonucleotides in a high-fat diet model of obesity; type: in vivo; settings: 10 doses in 12 days of 30 μg intranasally
# Description: Animals were fed a high fat diet (HFD) (TD.06414, 60% fat, Harlan) or a standard diet (Control diet: 2014, Harlan) for 12 weeks. Those obese animals that weighed more than the mean body weight of the lean animals plus 2 times the lean standard deviation were selected:
# Obese BW>lean BW mean+2×lean SD
# The day of administration animals were fasted for 8 hours. Under isofluorane anesthesia, 10 doses in 12 days of 30 μg of the following molecules were intranasally administered (5 μl per nostril): • Vehicle (VH) (1×PBS) • TAB-NS-ASO4 (NS)(Non-sense sequence directed with tabimorelin) • TAB-SOCS3-ASO4 (SOCS3)(antisense sequence against socs3 mRNA directed with tabimorelin) • TAB-PTP1B-ASO4 (PTP1B)(antisense sequence against ptp1b mRNA directed with tabimorelin
# Body weight and food intake were daily monitored. 48 hours after the last administration animals were sacrificed and tissues collected for further analysis.
# human recombinant GHS-R1a, sequence (Q92847 whole entry): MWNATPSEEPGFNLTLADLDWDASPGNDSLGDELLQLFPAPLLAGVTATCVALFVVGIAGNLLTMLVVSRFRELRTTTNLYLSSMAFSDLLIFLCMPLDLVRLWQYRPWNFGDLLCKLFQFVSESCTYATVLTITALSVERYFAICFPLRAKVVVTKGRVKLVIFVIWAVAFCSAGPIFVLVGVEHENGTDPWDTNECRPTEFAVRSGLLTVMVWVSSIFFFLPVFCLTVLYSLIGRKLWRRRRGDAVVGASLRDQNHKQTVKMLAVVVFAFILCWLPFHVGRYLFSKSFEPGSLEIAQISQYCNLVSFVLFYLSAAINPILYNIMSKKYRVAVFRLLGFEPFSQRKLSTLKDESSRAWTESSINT
compound,measurement,setting,value
CNC(=O)[C@@H](Cc1ccccc1)N(C)C(=O)[C@@H](Cc1ccc2ccccc2c1)N(C)C(=O)/C=C/CC(C)(C)N [Tabimorelin],Ki,[1],50 nM
same,EC50,rat pituitary cells,2.7 nM
"TAB-SOCS3-ASO4: antisense sequence against socs3 mRNA directed with tabimorelin; 20-mer with 10 DNA core and 2′-o-methyl flanks (antisense GUGGCGCTGGTCCGAGCTGT; sugars from the 5' end m5 d10 m5, backbone and methylation of C not given here; tabimorelin conjugate attached)",Daily BW gain (mean of changes in daily body weight),[2],"not being significantly different between groups, a decrease was observed"
same,Cumulative body weight (BW) gain,[2]; vs VH and NS,gained significantly less weight than control animals
same,Cumulative food intake (FI),[2]; vs VH and NS,significantly decreased
same,Daily FI (mean of daily food ingestion),[2]; vs VH and NS,decreased
